Experimental findings from PMC10709440, “High-throughput ligand profile characterization in novel cell lines expressing seven heterologous insect olfactory receptors for the detection of volatile plant biomarkers” (Scientific Reports, 2023) are described below.

In one experiment the target is T1, Drosophila OR49b (Drosophila melanogaster, UniProt Q9V6H2).
T1 construct: expressed in transfected cells
T1 sequence (Q9V6H2 1-375): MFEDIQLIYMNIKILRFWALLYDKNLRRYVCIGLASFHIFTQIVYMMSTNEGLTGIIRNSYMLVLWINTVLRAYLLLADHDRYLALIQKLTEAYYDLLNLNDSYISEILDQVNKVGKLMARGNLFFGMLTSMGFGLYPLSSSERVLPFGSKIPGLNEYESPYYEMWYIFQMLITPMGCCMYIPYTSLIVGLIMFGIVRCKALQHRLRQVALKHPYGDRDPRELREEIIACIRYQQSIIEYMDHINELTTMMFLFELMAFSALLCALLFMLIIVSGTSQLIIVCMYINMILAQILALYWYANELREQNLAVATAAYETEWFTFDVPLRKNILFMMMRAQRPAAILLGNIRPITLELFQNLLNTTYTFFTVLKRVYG
T1 sequence (Q9VNB5 1-486 partner): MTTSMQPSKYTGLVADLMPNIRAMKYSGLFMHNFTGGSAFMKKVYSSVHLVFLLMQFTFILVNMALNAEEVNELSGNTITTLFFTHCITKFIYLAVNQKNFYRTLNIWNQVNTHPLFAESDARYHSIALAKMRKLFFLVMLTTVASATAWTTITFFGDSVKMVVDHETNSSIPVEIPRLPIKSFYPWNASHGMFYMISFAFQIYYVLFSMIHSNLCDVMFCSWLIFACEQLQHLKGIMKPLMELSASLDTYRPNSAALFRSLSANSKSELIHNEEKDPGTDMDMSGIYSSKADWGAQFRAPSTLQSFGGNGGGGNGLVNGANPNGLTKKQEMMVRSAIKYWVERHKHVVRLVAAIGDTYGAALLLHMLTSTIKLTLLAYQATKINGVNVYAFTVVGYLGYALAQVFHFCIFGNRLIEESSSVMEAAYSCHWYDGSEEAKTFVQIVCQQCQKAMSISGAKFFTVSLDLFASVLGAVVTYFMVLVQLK
The experiment can be described thus: cell-based. The following applies: for Average response: OR49b cell line, mean of biological replicates; for DF norm AVERAGE OR49b: threshold 0.05, below shown as 0; for activation at 1 µM / activation at 10 µM / activation at 100 µM: HEK293, read-out: OR49b response (VUAA1-normalized response). In a few lines:
(§1)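 Responses are VUAA1-normalized ΔF: each VOC-evoked calcium signal, (FMAX−F0)/F0 over 30 s after injection, divided by the same line's mean 50 µM VUAA1 response. Cells were doxycycline-induced HEK293 with GCaMP6 and the cognate Drosophila OR, in HEPES buffer pH 7.3; ligands tested 0.01–100 μM.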

Another experiment has as its target T2, Drosophila OR71a (Drosophila melanogaster, UniProt Q9VUK5).
T2 construct: expressed in transfected cells
T2 sequence (Q9VUK5 1-378): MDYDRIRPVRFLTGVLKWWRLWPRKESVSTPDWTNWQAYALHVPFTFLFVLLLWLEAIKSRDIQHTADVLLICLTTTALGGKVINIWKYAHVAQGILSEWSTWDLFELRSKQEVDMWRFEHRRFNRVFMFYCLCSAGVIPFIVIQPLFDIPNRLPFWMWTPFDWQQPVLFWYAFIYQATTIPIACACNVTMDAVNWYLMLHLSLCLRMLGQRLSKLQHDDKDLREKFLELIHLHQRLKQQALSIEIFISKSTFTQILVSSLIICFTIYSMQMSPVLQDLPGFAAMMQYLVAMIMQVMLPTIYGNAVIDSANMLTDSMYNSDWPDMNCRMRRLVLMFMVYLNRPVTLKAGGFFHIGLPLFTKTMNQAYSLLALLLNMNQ
T2 sequence (Q9VNB5 1-486 partner): T1 sequence (Q9VNB5 1-486 partner)
The experiment can be described thus: Calcium ion fluorescence (GCaMP6) assay, OR71a stable HEK293 cell line. The following applies: for Average response: OR71a cell line, VUAA1-normalized response, mean of biological replicates; for activation at 1 µM / activation at 10 µM / activation at 100 µM: HEK293, read-out: OR71a response (VUAA1-normalized response). The format is cell-based. In a few lines:
as §1

[1] abbreviates: ligand concentration 1 (unit not given).
Where [2] appears, read: ligand concentration 10 (unit not given).
Setting [3] is: ligand concentration 100 (unit not given).
[4] abbreviates: ligand concentration 1 (unit not given), threshold 0.05, below shown as 0.
Where [5] appears, read: ligand concentration 10 (unit not given), threshold 0.05, below shown as 0.
[6] abbreviates: ligand concentration 100 (unit not given), threshold 0.05, below shown as 0.
Setting [7] is: concentration 1, normalized fluorescence change, values below 0.05 threshold given as 0.
Where [8] appears, read: concentration 10, normalized fluorescence change, values below 0.05 threshold given as 0.
Setting [9] is: concentration 100, normalized fluorescence change, values below 0.05 threshold given as 0.

For `C=C(C)[C@H]1CC=C(C)CC1` [limonene], the Average response is 0.00 at Drosophila OR49b (odorant cc. 1 µM); 0.00 on Drosophila OR49b (odorant cc. 10 µM); 0.028 on Drosophila OR49b (odorant cc. 100 µM); 0.00 on Drosophila OR71a (cc. 1 µM); 0.00 at Drosophila OR71a (cc. 10 µM); 0.00 on Drosophila OR71a (cc. 100 µM). Besides, the “OR49b response (VUAA1-normalized response)” value on Drosophila OR49b (VOC concentration 1 μM), at Drosophila OR49b (VOC concentration 10 μM) and on Drosophila OR49b (VOC concentration 100 μM) was 0.00 throughout. For the same molecule, the “DF norm AVERAGE OR49b” value at Drosophila OR49b (setting [1]), on Drosophila OR49b (setting [2]) and at Drosophila OR49b (setting [3]) was 0 each time. The “OR71a response (VUAA1-normalized response)” value on Drosophila OR71a (VOC concentration 1 μM), at Drosophila OR71a (VOC concentration 10 μM) and on Drosophila OR71a (VOC concentration 100 μM) was 0.00 in each case. For the same molecule, the “DF norm AVERAGE OR71a” value at Drosophila OR71a (setting [4]), at Drosophila OR71a (setting [5]) and at Drosophila OR71a (setting [6]) was 0 each time.

Regarding `CCCCCCCCCC=O` [decanal], the activation at 1 µM on Drosophila OR49b (VOC concentration 1 μM) and at Drosophila OR71a was 0% each time. Moreover, the activation at 10 µM at Drosophila OR49b (VOC concentration 10 μM) and on Drosophila OR71a was 0% throughout. Moreover, the activation at 100 µM came to 9% at Drosophila OR49b (VOC concentration 100 μM) and 0% on Drosophila OR71a. The Average response at Drosophila OR49b (odorant cc. 1 µM) was 0.00; at Drosophila OR49b (odorant cc. 10 µM) it was 0.00; at Drosophila OR49b (odorant cc. 100 µM) it was 0.09; on Drosophila OR71a (cc. 1 µM), 0.00; at Drosophila OR71a (cc. 10 µM), 0.00; at Drosophila OR71a (cc. 100 µM), 0.0139. In addition, the “DF norm AVERAGE OR49b” value on Drosophila OR49b (setting [1]) worked out at 0; on Drosophila OR49b (setting [2]) it was 0; at Drosophila OR49b (setting [3]), 0.08966. Also, the “DF norm AVERAGE OR71a” value on Drosophila OR71a (setting [4]), at Drosophila OR71a (setting [5]) and on Drosophila OR71a (setting [6]) was 0 in each case.

For `CCCCCCCO` [1-heptanol], the activation at 1 µM at Drosophila OR49b (VOC concentration 1 μM) and at Drosophila OR71a was 0% each time. Moreover, the activation at 10 µM at Drosophila OR49b (VOC concentration 10 μM) and on Drosophila OR71a was 0% throughout. Also, the results for the activation at 100 µM on Drosophila OR49b (VOC concentration 100 μM) and on Drosophila OR71a were 6% and 0%, respectively. For the same molecule, the Average response at Drosophila OR49b (odorant cc. 1 µM) is 0.00; at Drosophila OR49b (odorant cc. 10 µM), 0.00; at Drosophila OR49b (odorant cc. 100 µM), 0.06; at Drosophila OR71a (cc. 1 µM), 0.00; at Drosophila OR71a (cc. 10 µM), 0.00; on Drosophila OR71a (cc. 100 µM) it was 0.00. Further, the “DF norm AVERAGE OR71a” value on Drosophila OR71a (setting [7]), at Drosophila OR71a (setting [8]) and at Drosophila OR71a (setting [9]) was 0 each time.

For `C=C1[C@H]2CC[C@@H]3[C@H]2C(C)(C)CCC[C@]13C` [(+)-longifolene], the Average response on Drosophila OR49b (odorant cc. 1 µM) is 0.08; at Drosophila OR49b (odorant cc. 10 µM), 0.00; on Drosophila OR49b (odorant cc. 100 µM) it was 0.00; at Drosophila OR71a (cc. 1 µM), 0.00; at Drosophila OR71a (cc. 10 µM), 0.03; at Drosophila OR71a (cc. 100 µM), 0.0431. Besides, the “OR49b response (VUAA1-normalized response)” value on Drosophila OR49b (VOC concentration 1 μM) worked out at 0.08; at Drosophila OR49b (VOC concentration 10 μM), 0.00; at Drosophila OR49b (VOC concentration 100 μM) it was 0.00. The “OR71a response (VUAA1-normalized response)” value on Drosophila OR71a (VOC concentration 1 μM), at Drosophila OR71a (VOC concentration 10 μM) and at Drosophila OR71a (VOC concentration 100 μM) was 0.00 in each case. For the same molecule, the “DF norm AVERAGE OR71a” value at Drosophila OR71a (setting [7]), at Drosophila OR71a (setting [8]) and on Drosophila OR71a (setting [9]) was 0 each time.
